Experimental data taken from patent US20240287104A1, “NUCLIDE LABELLED H-TETRAZINES AND USE THEREOF FOR PET AND SPECT PRETARGETED IMAGING AND RADIONUCLIDE THERAPY” (RIGSHOSPITALET, priority 2020, published 2024).

Key:
[1] = system: CC49-TCO pretargeted LS174T tumor xenografts; assay: Blocking experiments with [111In]Q (Example 126, FIG. 3); assay type: in vivo, nude BALB/c mice; settings: FIG. 3, cold 19F-Tz 2 h before [111In]Q
Experimental: In this respect, we designed two highly reactive Tzs, which allowed ^18F-labeling and respective introduction of polar groups (FIG. 4-8). UB137 and UB108 were synthesized in sufficient yields via a Pinner-like synthesis as described in Example 97 and 106 and their ability to be used in pretargeted imaging were evaluated. The results were compared with the performance of compounds UB-65 and RGV-52 (FIG. 3). Efficiency in vivo was tested in an ex vivo screening assay lately published by our group and is inspired by traditional receptor blocking studies. In short, tumour-bearing mice are injected with a validated TCO-modified pretargeting vector 72 h before a test ^19F-Tz is administered. Subsequently after 2 hours, a pretargeted established ^111In-DOTA-Tz (Q)[6] is administered to the same mouse. […] In this manner, the blocking ability of the cold ^19F-Tz can be evaluated. […]
All animal studies were approved by the Danish Animal Welfare Council, ministry of Justice. […] Tumors were measured using a caliper and the volume calculated using the formula volume=½(length×width^2).
These blocking experiments were made using the method described in Example 125. […] All tissues were weighted and the radioactivity measured in a gamma counter (Wizard2, Perkin Elmer) and data was corrected for decay, tissue weight and injected amount of radioactivity. […]

[2] = Stability in phosphate-buffered saline (PBS) by analytical HPLC; assay type: physicochemical; settings: 12 h at 37° C.; for Stability in PBS (degradation): analytical HPLC
Experimental: The in vitro stability of UB108 and UB137 was assessed by analytical HPLC in Phosphate-buffered saline (PBS), Example 13 for UB108. […] Consequently, the organotin precursors were synthesized with an unoptimized synthetic strategy (FIG. 6, Examples 101 and 110). Radiolabeling succeeded in a one-pot, two step sequence with a RCY (d.c.) of approx. 10% and an overall synthesis time of ca. 90 minutes including synthesis, separation and formulation steps. An activity yield of 636 MBq starting from 11 GBq fluoride-18, and RCP of 98% at EOS was observed (FIGS. 6 and 11). UB137 could be labeled with similar results (FIGS. 6 and 7). The tetrazine ligation of ^18F-UB108 with s-TCO occurred rapidly, forming ligation products after click reaction (FIG. 11). Stability evaluation was completed for the formulated compound ^18F-UB108 in PBS at room temperature. […] UB137 could be labeled with similar results.
The shelf stability of UB-108 was assessed in phosphate-buffered saline (PBS) by analytical-HPLC. […] Consequently, the stannane precursor was synthesized in 4 steps (example 98-101 Radiolabeling succeeded in a one-pot, two-step sequence with a RCY (d.c.) of 11±3% (n=4) and an overall synthesis time of ca. 90 minutes including synthesis, separation and formulation. [^18F]-UB108 was obtained with an Am of 134±22 GBq/μmol (d.c.), a RCP of ≥99% (n=4) and an activity yield of 600-700 MBq (EOS) starting from ˜12 GBq fluoride-18. [^18F]-UB108 was stable in PBS at room temperature for minimum 4 h and rapidly reacted with TCO-PNP carbonate (23) as confirmed by radio-HPLC. Residual amounts of Cu and Sn in the final formulated solution were analyzed by ICP-MS and found to be well below the allowed limits specified in the ICH Guidelines (41-60 and 2.3-3.0 μg/L vs. 300 and 600 μg/day, respectively).

[3] = Second-order rate constants by stopped-flow spectrophotometry, unsubstituted TCO in 1,4-dioxane at 25° C.; assay type: physicochemical; settings: value of the Tz-scaffold: representative tetrazine with unsubstituted TCO, n ≥ 4
Experimental: Reaction kinetics of the Tz-derivatives were determined by pseudo-first order measurements in dioxane at 25.0±0.1° C. or PBS at 27.0±0.1° ° C. in a SX20 stopped flow photometer (Applied Photophysics). The pseudo first order rate constant was determined by linearization of the decay curve followed by linear fitting. The second order rate constant was calculated from the pseudo-first order rate constant.
A structurally diverse library of 45 Tz-derivatives was prepared (FIG. 15), covering a wide spectrum of physicochemical properties, in particular calculated TPSAs between 60-350 Å2 and different lipophilicities, with calculated log D7.4 values (c log D7.4) ranging from approximately −7.0 to 2.5 (Table 5). […] The distribution coefficient at physiological pH (log D7.4) and TPSA were calculated using the software Chemicalize. Tetrazines conjugated to DOTA were calculated with chelated trivalent cations, Tzs with other chelators with bivalent cations. Second-order rate constants for the Tz scaffolds A-L were determined by stopped-flow spectrophotometry (n≥4), monitoring the reaction of representative tetrazines with unsubstituted trans-cyclooctene (TCO) at 25° C. in 1,4-dioxane, and with TCO-PEG4 (modified TCO-5ax-OH, ‘minor-TCO’) in Dulbecco's phosphate buffered saline (DBPS) at 37° C. n≥3.

[4] = Second-order rate constants by stopped-flow spectrophotometry, TCO-PEG4 in DPBS at 37° C.; assay type: physicochemical; settings: value of the Tz-scaffold: representative tetrazine with TCO-PEG4, n ≥ 4
Experimental: A structurally diverse library of 45 Tz-derivatives was prepared (FIG. 15), covering a wide spectrum of physicochemical properties, in particular calculated TPSAs between 60-350 Å2 and different lipophilicities, with calculated log D7.4 values (c log D7.4) ranging from approximately −7.0 to 2.5 (Table 5). The Tz-scaffolds (A-L) include mono- and disubstituted methyl-, phenyl-, 2-pyrimidyl-, and 2-pyridyl-substituted Tz-derivatives with second-order rate constants for the reaction with TCO ranging from 1.4 to 230 M^−1 s^−1 in 1,4-dioxane at 25° C., and from 1,100 to 73,000 M^−1 s^−1 in buffered aqueous solution at 37° C. […] Several compounds were obtained as copper(II) complexes (for details see the Supporting Information), which was taken into account in the calculation of c log D7.4 and TPSA. The distribution coefficient at physiological pH (log D7.4) and TPSA were calculated using the software Chemicalize. Tetrazines conjugated to DOTA were calculated with chelated trivalent cations, Tzs with other chelators with bivalent cations. Second-order rate constants for the Tz scaffolds A-L were determined by stopped-flow spectrophotometry (n≥4), monitoring the reaction of representative tetrazines with unsubstituted trans-cyclooctene (TCO) at 25° C. in 1,4-dioxane, and with TCO-PEG4 (modified TCO-5ax-OH, ‘minor-TCO’) in Dulbecco's phosphate buffered saline (DBPS) at 37° C. n≥3.

[5] = system: CC49-TCO pretargeted LS174T colon carcinoma xenografts; assay: Pretargeted blocking assay with [111In]Q (Example 140); assay type: in vivo, BALB/c mice; settings: for Blocking effect: unlabeled Tz i.v. 72 h after CC49-TCO and 1 h before [111In]Q, change in tumor uptake 22 h p.i., normalized to unblocked group
Experimental: All animal studies were approved by the Danish Animal Welfare Council, ministry of Justice. Five weeks old female nude BALB/c mice (Charles River, Sulzfeld, Germany) were allowed to acclimatize for one week with access to water and chow ad libitum. Human colon cancer cell line (LS174T; obtained from ATCC) was cultured in minimum essential medium (MEM) supplemented with 10% fetal bovine serum, 1% L-Glutamine, 1% Sodium pyruvate, 1% non-essential amino acids, and 1% penicillin-streptomycin at 37° C. and 5% CO2. Cells were harvested by trypsination at a confluence of 70-90% and subcutaneous tumors were established in the left flank of the 6 weeks old animals by inoculation of ˜5×10^6 LS174T cells resuspended in sterile PBS (100 μL) and allowed to grow for 7-10 days. Tumors were measured using a caliper and the volume calculated using the formula volume=½(length×width^2).
The assay was inspired by receptor blocking experiments and based on the pretargeted imaging approach reported by Rossin et al. An ^111In-labeled Tz [^111In]Q was used in pair with TCO-modified CC49, a non-internalizing mAb that targets the tumor-associated glycoprotein 72 (TAG72), as a benchmark model for the in vivo ligation.
The TCO-modification of CC49 was carried out according to Rossin et al. To study the in vivo ligation performance of Tz-derivatives 1a-45a, BALB/c mice bearing LS174T colon carcinoma xenografts were injected intravenously (i.v.) with CC49-TCO 72 h prior to i.v. injection of the unlabeled Tz, followed by administration of [^111In]Q 1 h later. The animals were euthanized after 22 h and an ex vivo biodistribution was carried out to quantify the tumor uptake of [111 In]Q (FIG. 15). The efficiency of the in vivo ligation of the unlabeled Tz can thus be correlated to a reduced uptake of [111 In]Q (FIG. 15). As a control, blocking was performed using the non-radioactive precursor of [^111In]Q, which blocked ≥99% of the [^111In]Q tumor uptake. A group of CC49-TCO pretreated mice were injected exclusively with [^111In]Q (without blocking) and the determined uptake was used as reference value (100%) to normalize the observed changes in tumor uptake in blocking experiments.
All of these probes include H-phenyl-, pyrimidyl-phenyl-, or bis(pyridyl)-Tz-scaffolds with second-order rate constants for the reaction with TCO of >70 M 1 s 1 (1,4-dioxane, 25° C.) or of >39,000 M 1 s 1 (DPBS, 37° C.) (cf. Table 5). Next, potential correlations between the blocking effect, the c log D7.4 and the TPSA, as well as IEDDA reactivity were investigated. […] However, a distinct relationship between c log D7.4 values and the blocking effect was evidently observed when comparing Tz-derivatives with similar IEDDA reactivity (FIG. 16C, 16D). For all Tz-scaffolds a Pearson's correlation coefficient >0.78 was found. […] The blocking effect of non-radiolabeled Tz was determined as the change in tumor uptake of [111 In]Q 22 h p.i. Each Tz was administered 1 h prior to [111 In]Q and the uptake normalized to a group of animals were no blocking was performed (control). Data represent mean from n=3 mice/group. Correlation of blocking effect and c log D7.4 for Tz-derivatives with similar IEDDA reactivity (as shown in FIGS. 16C and D) where data was fitted to exponential growth equation Y=Y0 ekx (dotted line). The statistical analysis of the correlation between tumor uptake and c log D7.4 for the different groups of Tz-derivatives (shown in Table 7) was obtained by Pearson's correlation coefficient (r) which describes the goodness of fit between the blocking effect and c log D7.4. Notes: a Reaction of representative Tz with unsubstituted TCO; “Reaction of representative Tz with TCO-PEG4;” Measured for Tz-scaffold A only; n.d.=not determined.

Structure (SMILES)	Blocking effect (ranking) [1]	Shelf stability in PBS, intact ([2]; 2 nmol/mL) [%]	Stability in PBS (degradation) [2]	Rate constant (1,4-dioxane, 25° C.) [3] [M⁻¹ s⁻¹]	Rate constant (DPBS, 37° C.) [4]	% Tumor Uptake of [^111In]46 after blocking ([5]; tumor uptake 22 h p.i. normalized to unblocked group (100%)) [%]	Blocking effect [5] [%]	Blocking effect ([5]; listed as non-radioactive precursor of [^111In]Q) [%]
O=C(O)CN(CC(=O)O)Cc1cc(F)cc(-c2nncnn2)c1 [UB-108, 1-Carboxy-N-(carboxymethyl)-N-(3-fluoro-5-(1,2,4,5-tetrazin-3-yl)benzyl)methanaminium 2,2,2-trifluoroacetate]	best blocking effect	98	did not show degradation	–	–	–	–	–
O=C(O)CNCc1cc(F)cc(-c2nncnn2)c1 [UB-137, 1-Carboxy-N-(3-fluoro-5-(1,2,4,5-tetrazin-3-yl)benzyl)methanaminium 2,2,2-trifluoroacetate]	best blocking effect	–	did not show degradation	–	–	–	–	–
O=C(O)CN1CCN(CC(=O)O)CCN(CC(=O)NCCOCCOCCOCCOCCOCCOCCOCCOCCOCCOCCOCCNC(=O)CCCC(=O)Nc2ccc(-c3nnc(-c4ccccn4)nn3)nc2)CCN(CC(=O)O)CC1 [Q, reference compound]	–	–	–	230	73,000 M^−1 s^−1	1	99	≥ 99
